For the experiment, the target named is T1, tyrosyl tRNA synthetase (TyrRS) (Homo sapiens, UniProt P54577).
T1 sequence (P54577 1-528): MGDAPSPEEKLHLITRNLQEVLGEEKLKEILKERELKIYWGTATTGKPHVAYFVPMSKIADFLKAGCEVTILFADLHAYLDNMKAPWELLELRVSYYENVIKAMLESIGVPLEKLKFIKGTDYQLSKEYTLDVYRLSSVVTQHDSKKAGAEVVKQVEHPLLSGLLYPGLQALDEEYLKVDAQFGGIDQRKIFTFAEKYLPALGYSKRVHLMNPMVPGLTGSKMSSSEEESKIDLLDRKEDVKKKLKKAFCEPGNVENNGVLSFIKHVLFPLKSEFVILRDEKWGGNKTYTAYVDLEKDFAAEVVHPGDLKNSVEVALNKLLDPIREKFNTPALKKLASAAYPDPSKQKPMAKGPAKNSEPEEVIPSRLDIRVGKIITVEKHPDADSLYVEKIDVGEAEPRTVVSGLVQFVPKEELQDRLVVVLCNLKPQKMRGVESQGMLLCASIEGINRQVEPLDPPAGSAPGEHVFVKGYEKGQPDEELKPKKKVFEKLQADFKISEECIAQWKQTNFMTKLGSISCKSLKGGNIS
Briefly: X-ray co-crystal structure. In kind it is biochemical.

As for `Oc1ccc(/C=C/c2cc(O)cc(O)c2)cc1` [RSV, resveratrol], the inhibition constant Ki amounted to 22 µM.

As a reminder, the Ki is a dissociation constant, usually derived from enzyme kinetics or from competition with a known ligand. Read a low Ki as tighter binding.

The record behind these values is PMC4368482 (Nature, 2014).
